From PubChem BioAssay (NCI)
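1) Cells in 96-well plates. 2) Compound, 48 h, 5 concentrations. 3) Linear interpolation between surrounding doses. 4) Unreached endpoint = highest concentration. GI50 = concentration required for 50% inhibition of growth. TGI denotes the concentration required for complete inhibition of growth.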

Assays:
Assay in all cases: inhibition of tumour cell growth, NCI panel, 48 h
EKVX NSCLC = tested on: EKVX NSCLC
RXF 393 renal = tested on: RXF 393 renal
OVCAR-8 ovarian = tested on: OVCAR-8 ovarian
A498 renal = tested on: A498 renal
A549 NSCLC = tested on: A549 NSCLC
SW-620 colon = tested on: SW-620 colon
OVCAR-4 ovarian = tested on: OVCAR-4 ovarian
SK-MEL-28 melanoma = tested on: SK-MEL-28 melanoma
HCC-2998 colon = tested on: HCC-2998 colon
HCT-116 colon = tested on: HCT-116 colon

Row | SMILES | TGI (EKVX NSCLC) | TGI (RXF 393 renal) | TGI (OVCAR-8 ovarian) | TGI (A498 renal) | TGI (A549 NSCLC) | TGI (SW-620 colon) | TGI (OVCAR-4 ovarian) | TGI (SK-MEL-28 melanoma) | TGI (HCC-2998 colon) | GI50 (EKVX NSCLC) | GI50 (RXF 393 renal) | GI50 (OVCAR-8 ovarian) | GI50 (HCT-116 colon) | TGI (HCT-116 colon) | GI50 (A549 NSCLC) | GI50 (SW-620 colon) | GI50 (OVCAR-4 ovarian) | GI50 (HCC-2998 colon) | GI50 (A498 renal) | GI50 (SK-MEL-28 melanoma)
1 | COc1ccc(NC2=CC(=O)C(=O)c3ccccc32)nn1 | 9.82 µM | 3.78 µM | 5.35 µM | 3.29 µM | 31.2 µM | 3.4 µM | 2.79 µM | 2.3 µM | 21.2 µM |  |  |  |  |  |  |  |  |  |  | 
2 | OCC(O)CC[CH2][Sn]([Br])([c]1ccccc1)[c]1ccccc1 (stereo unspecified) | > 100 µM | > 100 µM | > 100 µM |  | > 100 µM | > 100 µM | > 100 µM |  | > 100 µM | > 100 µM | > 100 µM | > 100 µM | > 100 µM | > 100 µM | > 100 µM | > 100 µM | > 100 µM | > 100 µM |  | 
3 | COC(=O)/C=C/c1cc(OC)c(OC)c(OC)c1 | > 100 µM | > 100 µM | > 100 µM |  | > 100 µM | > 100 µM | > 100 µM | > 100 µM | > 100 µM |  |  |  |  | > 100 µM |  |  |  |  |  | 
4 | Nc1cc(N)c2nc(-c3ccccc3)c(Nc3ccc(Cl)c(Cl)c3)nc2c1 | 16.2 µM | 31.2 µM | 79.8 µM | 26.3 µM | 34.7 µM | 51.8 µM | 47.8 µM | 44.2 µM |  | 3.83 µM | 6.23 µM | 5.18 µM | 10.6 µM | 53 µM | 10.8 µM | 13.3 µM | 11.1 µM |  | 12.1 µM | 16.1 µM
5 | O=C1/C(=C/c2ccccc2)CNC/C1=C\c1ccccc1 | 16.5 µM |  | 5.88 µM | 4.57 µM | 7.63 µM | 2.11 µM | 2.9 µM | 3.9 µM | 3.33 µM |  |  |  |  | 0.415 µM |  |  |  |  |  | 
6 | C=CCOCCCCC(C(C)=O)C(=O)OC (stereo unspecified) |  | > 100 µM | > 100 µM | > 100 µM | > 100 µM | > 100 µM | > 100 µM | > 100 µM | > 100 µM |  |  |  |  | > 100 µM |  |  |  |  |  | 
7 | CC(C)(C)C1C=C(Sc2ccccc2)C(=O)O1 (stereo unspecified) | > 100 µM |  | > 100 µM | > 100 µM | > 100 µM | > 100 µM | > 100 µM | > 100 µM | > 100 µM |  |  |  |  | > 100 µM |  |  |  |  |  | 
8 | O=C1CCC2(c3ccc(F)cc3)Nc3cc(Cl)ccc3N12 (stereo unspecified) | > 100 µM | > 100 µM | > 100 µM | > 100 µM | > 100 µM | > 100 µM | > 100 µM | > 100 µM |  |  |  |  |  | > 100 µM |  |  |  |  |  | 
9 | O=C1c2cc(Cl)ccc2S(=O)(=O)c2c(NCCCNCCO)nc3ccccc3c21 | 4.83 µM |  | 4.53 µM | 9.34 µM | 12.3 µM | 1.71 µM | 2.18 µM | 3.39 µM | 15.1 µM | 1.66 µM |  | 1.86 µM | 1.49 µM | 3.26 µM | 3.22 µM | 0.444 µM | 0.985 µM | 4.31 µM | 2.95 µM | 1.76 µM
10 | CCOC(=O)C1=C(OC(OCC)C(CC)[Se]c2ccccc2)CCCC1 (stereo unspecified) | 78.9 µM | 37.7 µM | 42.1 µM | > 100 µM | > 100 µM |  | 33 µM | > 100 µM | > 100 µM |  |  |  |  | 45 µM |  |  |  |  |  | 
11 | CC1=CC(=Nc2ccc(N(CCCl)CCCl)cc2)C=C(C)C1=O | 35 µM |  |  | 4.13 µM | 24 µM | 4.6 µM | 4.76 µM | 10.1 µM | 9.83 µM | 3.31 µM |  |  | 0.935 µM | 2.38 µM | 1.61 µM | 0.816 µM | 1.56 µM | 2.29 µM | 1.68 µM | 2.48 µM
12 | C/C(CC(=O)Nc1cc(Cl)c(Cl)cc1Cl)=N\NC(N)=O | > 100 µM | > 100 µM | > 100 µM |  | > 100 µM | > 100 µM |  | > 100 µM | > 100 µM |  |  |  |  | > 100 µM |  |  |  |  |  | 
13 | C[C@@H]1OC(O)[C@@H](F)[C@H](O)[C@@H]1O (stereo partly specified) | > 100 µM |  | > 100 µM | > 100 µM | > 100 µM | > 100 µM | > 100 µM | > 100 µM | > 100 µM | > 100 µM |  | > 100 µM | > 100 µM | > 100 µM | > 100 µM | > 100 µM | > 100 µM | > 100 µM | > 100 µM | > 100 µM
14 | CSC(C1c2ccccc2N(c2ccc(C)cc2)C2=NC(=O)N(C)C(=O)C21Cl)S(=O)(=O)c1ccc(C)cc1 (stereo unspecified) | > 100 µM |  | > 100 µM | 92.7 µM | > 100 µM | 85.9 µM | 34.6 µM | 45.1 µM | 36.6 µM |  |  |  |  | 25.7 µM |  |  |  |  |  | 
15 | COc1ccc(/C=C/CN(C)CCc2ccccc2)cc1OC | > 100 µM | > 100 µM | > 100 µM |  | > 100 µM | > 100 µM |  | > 100 µM | > 100 µM |  |  |  |  | > 100 µM |  |  |  |  |  | 
16 | C=CCCCCCCCCC(=O)[O][Sn]([CH2]CCC)([CH2]CCC)[CH2]CCC | 0.32 µM | 0.255 µM |  | 0.276 µM | 0.322 µM | 0.332 µM | 0.251 µM | 0.296 µM | 0.291 µM | 0.131 µM | 0.0991 µM |  | 0.133 µM | 0.262 µM | 0.164 µM | 0.162 µM | 0.12 µM | 0.156 µM | 0.14 µM | 0.157 µM
17 | COC(=O)C1Cc2c(n(Cc3ccccc3)c3ccccc23)C(CCC(=O)O)N1C(C)C (stereo unspecified) | > 100 µM |  | > 100 µM | > 100 µM | > 100 µM | > 100 µM | > 100 µM | > 100 µM | > 100 µM |  |  |  |  | > 100 µM |  |  |  |  |  | 
18 | O=C1C2c3[nH]c4ccccc4c3C3CCCCCCC3C2C(=O)N1c1ccccc1 (stereo unspecified) | > 100 µM | 23.8 µM | 14.7 µM | 39.9 µM | 24.9 µM | 29.8 µM | 15.4 µM | 43.7 µM | > 100 µM |  |  |  |  |  |  |  |  |  |  | 
19 | CC(C)(CC(=O)Nc1ccccc1)C(=O)O | > 100 µM |  | > 100 µM | > 100 µM | > 100 µM | > 100 µM | > 100 µM | > 100 µM |  |  |  |  |  | > 100 µM |  |  |  |  |  | 
20 | O=C(O)C(CO)NC(=O)n1c2ccccc2c2ccccc21 (stereo unspecified) | > 100 µM | > 100 µM | > 100 µM |  | > 100 µM | > 100 µM |  | > 100 µM | > 100 µM |  |  |  |  | > 100 µM |  |  |  |  |  | 
